{"source": "patent EP2018861A1", "about": "“5HT6-Ligands such as sulfonamide derivatives in drug-induced weight-gain” (Laboratorios del Dr. Esteve S.A., priority 2007, dated 2009)", "key": {"5-HT6 receptors": {"target": "5-HT6 receptors (Rattus norvegicus, UniProt P31388)", "sequence (P31388 whole entry)": "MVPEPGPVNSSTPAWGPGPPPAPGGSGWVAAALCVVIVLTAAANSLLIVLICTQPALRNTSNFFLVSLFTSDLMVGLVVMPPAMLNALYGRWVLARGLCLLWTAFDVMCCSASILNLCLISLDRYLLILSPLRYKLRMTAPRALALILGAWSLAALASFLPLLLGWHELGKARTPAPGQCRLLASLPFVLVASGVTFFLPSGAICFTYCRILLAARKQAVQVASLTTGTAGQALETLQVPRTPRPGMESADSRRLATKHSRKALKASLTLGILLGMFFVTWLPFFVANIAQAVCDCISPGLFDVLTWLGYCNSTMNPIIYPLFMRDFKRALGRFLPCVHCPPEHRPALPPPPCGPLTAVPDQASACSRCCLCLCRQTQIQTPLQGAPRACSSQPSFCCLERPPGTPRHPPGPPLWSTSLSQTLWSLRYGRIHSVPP", "conditions": "Roth et al, 1994; cited from earlier work"}, "[1]": {"conditions": "5-HT6 antagonists; Svartengren et al, 2004; Shacham et al, 2006; cited from earlier work"}, "[2]": {"experiment": "Feeding study: olanzapine-induced weight-gain and hyperphagia in rats on a high-fat diet", "assay_type": "in vivo, female Sprague-Dawley rats", "conditions": "olanzapine 3 mg/kg po; for Mean body weight (g) Day 15: after 14 days of treatment, high-fat diet; for Mean body weight (g) Day 15 / Mean body weight (g) Day 0: n=10; for Mean body weight (g) Day 0: before treatment (baseline)", "experimental": "The experiment was performed on 40 female Sprague-Dawley rats (originally in the weight range 250-300 g). The animal room was maintained at a temperature of 21±4°C and 55±20% humidity and on a reversed phase light-dark cycle (lights off for 8 h from 09.30-17.30 h) during which time the room was illuminated by red light. Animals had free access to powdered high fat diet (VRF1 plus 20% lard). The diet was contained in a glass feeding jar with an aluminium lid with a 3-4 cm hole cut in it to allow access to the food. Animals were housed singly in polypropylene cages with wire grid floors to enable the food intake of each rat to be recorded. Polypropylene trays containing cage pads were placed beneath each cage to detect any food spillage. Animals were accustomed to these new conditions (individual housing and the wire-grid floor cages) for at least 14 days before the start of the baseline readings.\nApproximately a week before the start of the study, animals were weighed (to the nearest 0.1 g using an electronic top-pan balance) and allocated into 4 weight-matched treatment groups, each containing 10 animals. Following a 7 day baseline run-in period, during which the animals were dosed orally with vehicle (0.5% hydroxypropylmethylcellulose), to acclimatise them to dosing/handling, the rats were given treatments, described in the Table below, for 14 days.\nFood intake and body weight were measured once daily. Variations in body weight were accounted for by expressing the food intake results in terms of g/kg rat weight.\n(§1) Statistical comparisons between the body weights of the different treatment groups were made by analysis of covariance followed by multiple t tests (two-tailed) to compare each treatment group with the vehicle-treated controls. For the body weight data (body weights recorded each day), the weights of the animals on Day 1 (ie immediately before the first drug treatment) were used as the covariate. Thus, means were adjusted for differences in body weight between the groups on Day 1 and standard errors of the mean (SEM) were calculated from the residuals of the statistical model. All mean body weight values on Day 1 are identical (and SEM are therefore zero) because the analysis of covariance adjusts them all to equal the 'grand mean' of the values of this day.\nStatistical comparisons between the food intakes of the different treatment groups were made by analysis of covariance followed by multiple t tests (two-tailed) to compare each treatment group with the vehicle-treated controls. Food intake of the animals at baseline (ie average of Day -6 to Day 0) was used as the covariate. Standard errors of the mean (SEM) were calculated from the residuals of the statistical model.\nAnalysis of body weights and average daily food intakes were also performed to analyse cumulative food intake and body weight changes. Analysis of covariance followed by post-hoc Student's t-test (two-tailed) was used to compare the average daily food intakes over Week 1 and Week 2 for COMPOUND 1 treatment group versus (a) the vehicle-treated and (b) the olanzapine-treated groups of rats. The body weights of all groups of rats before and after treatment were statistically compared pair-wise using Student's paired t-test (two-tailed)."}, "[3]": {"target": "rat variant of the 5-HT6 receptor (Rattus norvegicus, UniProt P31388)", "conditions": "Romero et al, 2006; cited from earlier work"}, "human 5-HT6 receptors": {"target": "T1, human 5-HT6 receptors (Homo sapiens, UniProt P50406)", "T1 construct": "purchased Perkin-Elmer; host or cells: HEK-293 (stably transfected), membranes", "T1 sequence (P50406 whole entry)": "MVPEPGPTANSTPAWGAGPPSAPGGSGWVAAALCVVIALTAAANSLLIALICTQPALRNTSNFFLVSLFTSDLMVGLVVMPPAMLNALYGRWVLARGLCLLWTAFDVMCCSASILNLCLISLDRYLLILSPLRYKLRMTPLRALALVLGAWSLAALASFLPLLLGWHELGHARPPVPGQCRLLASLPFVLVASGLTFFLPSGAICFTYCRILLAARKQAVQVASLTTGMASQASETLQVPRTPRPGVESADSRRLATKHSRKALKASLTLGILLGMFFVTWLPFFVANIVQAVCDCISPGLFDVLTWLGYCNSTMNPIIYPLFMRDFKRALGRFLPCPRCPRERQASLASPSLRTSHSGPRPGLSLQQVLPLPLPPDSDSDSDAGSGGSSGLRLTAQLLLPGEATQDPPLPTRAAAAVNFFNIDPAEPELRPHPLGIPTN", "experiment": "Radiolabelled ligand-receptor binding ([3H]-LSD) on cloned/transfected human 5-HT6 receptors", "conditions": "equated from the pKi value", "experimental": "To investigate the binding properties of 5-HT6 receptor ligands to human 5-HT6 receptors, transfected HEK-293 membranes from Perkin-Elmer and [3H]-LSD (NEN), as the radioligand, were used. The assay was carried out in 96-well plates with a total reaction volume of 200 µl, containing 100 µl of membrane suspension (35 µg protein/well), 10 µl of [3H]-LSD (2.7 nM) in either the absence or presence of 90 µl of either buffer or methiothepin (5 µM) for total and non-specific binding, respectively. Binding buffer contained 50 mMTris-HCl, 10 mM MgCl2 and 0.5 mM EDTA at pH 7.4. Plates were incubated at 37 °C for 60 minutes. After the incubation period, 170 µl of incubate were transferred to MultiScreen HTS, FC plates (Millipore), filtered and plates were washed 3 times with ice-cold 50mM Tris-HCl (pH 7.4). Filters were dried and counted at approximately 40% efficiency in a MicroBeta scintillation counter (Perkin-Elmer) using 25 µl per well of EcoScint liquid scintillation cocktail."}, "[4]": {"experiment": "Feeding study in dietary-induced obese (DIO) rats, comparison with sibutramine", "assay_type": "in vivo, female Wistar rats", "conditions": "for body weight compared with the vehicle-treated controls / daily food intake: 28 days; for body weight compared with the vehicle-treated controls / daily food intake / days on which the decreases of food intake were statistically significant versus the vehicle-treated control group / weighed less than the vehicle-treated controls: COMPOUND 1 30 mg/kg po bid; for body weight compared with the vehicle-treated controls: sibutramine 5 mg/kg/day po once daily (Figure 4); for daily food intake: sibutramine 5 mg/kg/day po once daily (Figure 5); for days on which the decreases of food intake were statistically significant versus the vehicle-treated control group / weighed less than the vehicle-treated controls: sibutramine 5 mg/kg/day po; for weighed less than the vehicle-treated controls: end of treatment period (Day 28); for weight reductions: over the 28 daily treatment period, DIO rat (Figure 4)", "experimental": "The experiment was performed on female Wistar rats (originally in the weight range 250-300 g). The rats were housed in pairs in polypropylene cages with solid floors and sawdust bedding at a temperature of 21±4°C and 55±20% humidity. Animals were maintained on a reverse phase light-dark cycle (lights off for 8 h from 09.30-17.30 h) during which time the room was illuminated by red light. Animals had free access to powdered high fat diet (VRF1 plus 20% lard), ground chocolate, ground peanuts and tap water at all times. The three different diets were contained in separate glass feeding jars with aluminum lids with a 3-4 cm hole cut in them to allow access to the food. Animals were housed in pairs for twelve weeks for the induction of obesity. Animals were then housed singly in polypropylene cages with wire grid floors to enable the food intake of each rat to be recorded. Polypropylene trays with cage pads were placed beneath each cage to detect any food spillage. Animals were accustomed to these new conditions (individual housing and the wire-grid floor cages) for at least 14 days before the start of the baseline readings.\nAt the start of the first DIO study, animals were weighed (to the nearest 0.1 g using an electronic top-pan balance) and allocated into 3 weight-matched treatment groups, each containing 10 animals. Following a 7 day baseline run-in period, during which time all animals were dosed orally once a day with vehicle (0.5% hydroxypropylmethylcellulose), rats were dosed for 28 days with vehicle at 0 and 6 h or test compound either COMPOUND 1 (30 mg/kg, p.o., twice a day at 0 and 6 h) or sibutramine (5 mg/kg, p.o. at 0 h / vehicle p.o. at 6 h). The first compound dose was given at the onset of the 8 h dark period (0 h). This strategy was taken to maximise the impact of any inhibitory effect of the compounds on food intake as rats are predominantly nocturnal feeders. Six hours later, animals were dosed again with either vehicle or compounds.\nFood intake and body weight were measured once daily. Variations in body weight and energy levels of the different types of food were accounted for by expressing the food intake results in terms of kJ/kg rat weight.\nas §1, with “body weights and daily food intakes of the” for “body weights of the”, “treatment groups have been made by” for “treatment groups were made by”, “followed by Dunnett's test to compare” for “followed by multiple t tests (two-tailed) to compare”, “(body weights each day),” for “(body weights recorded each day),”"}, "[5]": {"target": "human variant of the 5-HT6 receptor (Homo sapiens, UniProt P50406)", "conditions": "Romero et al, 2006; cited from earlier work"}, "[6]": {"conditions": "repeated sibutramine administration, 14 days (Figure 7); cited from earlier work"}}, "data": [{"smiles": "C[C@@H]1CN(CCCn2c3ccccc3c3ccccc32)C[C@H](C)N1", "note": "[rimcazole]", "values": [{"measurement": "affinity for this 5-HT receptor subtype (5-HT6)", "setting": "5-HT6 receptors", "value": "no relevant affinity"}]}, {"smiles": "COc1cc(Cl)cc(C(C)Nc2cc(N3CCNCC3)ccc2S(C)(=O)=O)c1OC.Cl", "note": "(stereo not shown) [PRX-07034]", "values": [{"measurement": "food intake and body weight in obese rodents", "setting": "[1]", "value": "reduce food intake and produce sustained weight-loss"}]}, {"smiles": "CCN1CCC[C@H]1CNC(=O)c1c(O)c(Cl)cc(Cl)c1OC", "note": "[raclopride]", "values": [{"measurement": "affinity for this 5-HT receptor subtype (5-HT6)", "setting": "5-HT6 receptors", "value": "no relevant affinity"}]}, {"smiles": "OC1(c2ccc(Cl)c(C(F)(F)F)c2)CCN(CCCC(c2ccc(F)cc2)c2ccc(F)cc2)CC1", "note": "[penfluridol]", "values": [{"measurement": "affinity for this 5-HT receptor subtype (5-HT6)", "setting": "5-HT6 receptors", "value": "no relevant affinity"}]}, {"smiles": "Cc1cc2c(s1)Nc1ccccc1N=C2N1CCN(C)CC1", "note": "[Olanzapine]", "values": [{"measurement": "Mean body weight (g) Day 15", "setting": "[2]; COMPOUND 1 30 mg/kg po bid", "value": "333.0 ± 8.2", "unit": "g"}, {"measurement": "Mean body weight (g) Day 0", "setting": "[2]; COMPOUND 1 30 mg/kg po bid", "value": "296.9 ± 7.2", "unit": "g"}]}, {"smiles": "CN(C)CCc1c[nH]c2ccc(NS(=O)(=O)c3ccc4c(Cl)cccc4c3)cc12", "note": "[COMPOUND 1, 5-Chloro-naphthalene-2-sulfonic acid [3-(2-dimethylamino-ethyl)-1H-indol-5-yl]-amide]", "values": [{"measurement": "functionality at the 5-HT6 receptor", "setting": "[3]", "value": "agonist"}, {"measurement": "body weight compared to the vehicle + vehicle-treated control", "setting": "[2]; 14 days, COMPOUND 1 30 mg/kg po bid, high-fat diet (Figure 1)", "value": "gradual decrease in body weight"}, {"measurement": "daily food intake compared to the vehicle-treated controls", "setting": "[2]; 14 days, COMPOUND 1 30 mg/kg po bid, high-fat diet (Figure 2)", "value": "markedly reduced their food intakes"}, {"measurement": "cumulative intake of food over the first week compared to the vehicle controls", "setting": "[2]; Week 1, COMPOUND 1 30 mg/kg po bid (Figure 3)", "value": "statistically lower (p < 0.001)"}, {"measurement": "Mean body weight (g) Day 15", "setting": "[2]; COMPOUND 1 30 mg/kg po bid", "value": "289.5 ± 6.1", "unit": "g"}, {"measurement": "Mean body weight (g) Day 0", "setting": "[2]; COMPOUND 1 30 mg/kg po bid", "value": "292.8 ± 7.2", "unit": "g"}, {"measurement": "Ki", "setting": "human 5-HT6 receptors", "value": 0.74, "unit": "nM"}, {"measurement": "body weight compared with the vehicle-treated controls", "setting": "[4]", "value": "marked and sustained decrease in the body weights"}, {"measurement": "daily food intake", "setting": "[4]", "value": "reduction in daily food intake"}, {"measurement": "days on which the decreases of food intake were statistically significant versus the vehicle-treated control group", "setting": "[4]", "value": "Day 2 to Day 8"}, {"measurement": "weighed less than the vehicle-treated controls", "setting": "[4]", "value": 15.6, "unit": "%"}, {"measurement": "weight reductions", "setting": "[4]", "value": "greater than 10%"}, {"measurement": "functionality at the 5-HT6 receptor", "setting": "[5]", "value": "agonist"}]}, {"smiles": "CC(C)CC(N(C)C)C1(c2ccc(Cl)cc2)CCC1", "note": "(stereo not shown) [sibutramine]", "values": [{"measurement": "body weight compared with the vehicle-treated controls", "setting": "[4]", "value": "significant body weight-loss"}, {"measurement": "daily food intake", "setting": "[4]", "value": "significant reduction of food intake"}, {"measurement": "days on which the decreases of food intake were statistically significant versus the vehicle-treated control group", "setting": "[4]", "value": "Day 1 to Day 5"}, {"measurement": "weighed less than the vehicle-treated controls", "setting": "[4]", "value": 10.8, "unit": "%"}, {"measurement": "weight reductions", "setting": "[4]", "value": "greater than 10%"}, {"measurement": "effect on the weight-gain evoked by olanzapine", "setting": "[6]", "value": "only partially to attenuate the weight-gain"}]}]}
